Source: article PMC10782225 (The FASEB Journal, 2023)
Like-named read-outs stand apart in the source and are kept apart here.

Columns and labels:
[1] = target: T1, Outer pocket mutant α7β2‐nAChR (β2[K79T,F119Q]) (Homo sapiens, UniProt P17787+P36544, F144Q/K104T); assay: ACh concentration‐response curve, TEVC, outer pocket α7β2‐nAChR; assay type: cell-based; conditions: mean ± SEM of 15–19 oocytes
T1 construct: expressed in transfected cells; host or cells: Xenopus laevis oocytes, cRNA injection

[2] = target: T2, Inner pocket mutant α7β2‐nAChR (β2[S108T, V111L,W120Y]) (Homo sapiens, UniProt P17787+P36544, S133T/V136L/W145Y); assay: ACh concentration‐response curve, TEVC, inner pocket α7β2‐nAChR; assay type: cell-based; conditions: mean ± SEM of 15–19 oocytes
T2 construct: expressed in transfected cells; host or cells: Xenopus laevis oocytes, cRNA injection

human α7β2‐nAChR = target: T3, human α7β2‐nAChR (Homo sapiens, UniProt P17787+P36544); assay: cell-based
T3 construct: expressed in transfected cells; host or cells: Xenopus laevis oocytes, cRNA injection

human α7‐only‐nAChR = target: T4, human α7‐only‐nAChR (Homo sapiens, UniProt P36544); assay: cell-based; conditions: SEM; for koff: read-out: k off α7‐only; for kon: read-out: k on α7‐only
T4 construct: expressed in transfected cells; host or cells: Xenopus laevis oocytes, cRNA injection

α3β4‐nAChR = target: T5, α3β4‐nAChR (Homo sapiens, UniProt P30926+P32297); assay type: cell-based
T5 construct: expressed in transfected cells; host or cells: Xenopus laevis oocytes, cRNA injection

α9α10‐nAChR = target: T6, α9α10‐nAChR (Homo sapiens, UniProt Q9GZZ6+Q9UGM1); assay: cell-based
T6 construct: expressed in transfected cells; host or cells: Xenopus laevis oocytes, cRNA injection

[3] = target: T7, Inner pocket mutant α7β2‐nAChR (β2[S108T, V111L,W120Y] at both α7(+)/(−)β2 subunit interfaces) (Homo sapiens, UniProt P17787+P36544, S133T/V136L/W145Y); assay: cell-based; conditions: SEM; for koff: read-out: k off, “Inner pocket” α7β2‐nAChR; for kon: read-out: k on, “Inner pocket” α7β2‐nAChR
T7 construct: expressed in transfected cells; host or cells: Xenopus laevis oocytes, cRNA injection

[4] = target: T8, Outer pocket mutant α7β2‐nAChR (β2[K79T,F119Q] at both α7(+)/(−)β2 subunit interfaces) (Homo sapiens, UniProt P17787+P36544, F144Q/K104T); assay: cell-based; conditions: SEM; for koff: read-out: k off, “Outer pocket” α7β2‐nAChR; for kon: read-out: k on, “Outer pocket” α7β2‐nAChR
T8 construct: expressed in transfected cells; host or cells: Xenopus laevis oocytes, cRNA injection

α6/3β2β3‐nAChR = target: T9, α6/3β2β3‐nAChR (Homo sapiens, UniProt P17787+P32297+Q05901+Q15825); assay type: cell-based
T9 construct: expressed in transfected cells; host or cells: Xenopus laevis oocytes, cRNA injection

α3β2‐nAChR = target: T10, α3β2‐nAChR (Homo sapiens, UniProt P17787+P32297); assay type: cell-based
T10 construct: expressed in transfected cells; host or cells: Xenopus laevis oocytes, cRNA injection

[5] = ACh 10 μM – 10 mM, half‐log steps, 3 s, 60 s apart
[6] = read-out: k off, Unaltered α7β2‐nAChR, SEM
[7] = read-out: k on, Unaltered α7β2‐nAChR, SEM

T7 sequence (P17787 26-502 S133T/V136L/W145Y): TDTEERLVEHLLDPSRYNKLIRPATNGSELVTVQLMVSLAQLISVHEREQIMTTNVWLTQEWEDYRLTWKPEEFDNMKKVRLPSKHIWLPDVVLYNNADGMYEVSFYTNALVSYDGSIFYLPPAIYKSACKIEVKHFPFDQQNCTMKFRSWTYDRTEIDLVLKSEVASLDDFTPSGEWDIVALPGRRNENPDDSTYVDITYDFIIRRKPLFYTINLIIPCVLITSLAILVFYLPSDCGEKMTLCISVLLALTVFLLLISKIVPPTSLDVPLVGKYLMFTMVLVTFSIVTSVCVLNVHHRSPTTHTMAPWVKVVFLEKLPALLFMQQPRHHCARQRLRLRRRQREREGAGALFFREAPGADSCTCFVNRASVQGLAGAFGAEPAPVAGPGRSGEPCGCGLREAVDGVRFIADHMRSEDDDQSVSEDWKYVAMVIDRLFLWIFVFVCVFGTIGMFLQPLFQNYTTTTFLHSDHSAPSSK
T7 sequence (P36544 23-502): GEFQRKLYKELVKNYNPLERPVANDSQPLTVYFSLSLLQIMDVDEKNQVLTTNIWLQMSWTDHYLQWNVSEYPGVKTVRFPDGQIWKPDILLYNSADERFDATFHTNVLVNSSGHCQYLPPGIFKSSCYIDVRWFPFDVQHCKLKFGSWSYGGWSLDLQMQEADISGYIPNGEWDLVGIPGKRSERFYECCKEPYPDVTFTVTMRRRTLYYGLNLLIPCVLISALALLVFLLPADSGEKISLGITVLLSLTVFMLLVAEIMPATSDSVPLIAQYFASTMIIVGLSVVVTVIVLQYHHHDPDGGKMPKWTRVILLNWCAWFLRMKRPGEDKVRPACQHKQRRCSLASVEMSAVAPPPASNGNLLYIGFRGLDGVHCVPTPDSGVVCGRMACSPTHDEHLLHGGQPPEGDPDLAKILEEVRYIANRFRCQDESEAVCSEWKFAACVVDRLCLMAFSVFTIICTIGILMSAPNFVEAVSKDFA
T8 sequence (P17787 26-502 K104T/F144Q): as the sequence (P17787 26-502 S133T/V136L/W145Y) above, with K79T, T108S, L111V, F119Q, Y120W counted along it
T8 sequence (P36544 23-502): as the sequence (P36544 23-502) above
T4 sequence (P36544 23-502 limits assumed): as the sequence (P36544 23-502) above
T3 sequence (P36544 23-502 limits assumed): as the sequence (P36544 23-502) above
T3 sequence (P17787 26-502 limits assumed): as the sequence (P17787 26-502 S133T/V136L/W145Y) above, with T108S, L111V, Y120W counted along it
T2 sequence (P36544 23-502): as the sequence (P36544 23-502) above
T2 sequence (P17787 26-502 S133T/V136L/W145Y): as the sequence (P17787 26-502 S133T/V136L/W145Y) above
T1 sequence (P36544 23-502): as the sequence (P36544 23-502) above
T1 sequence (P17787 26-502 K104T/F144Q): as the sequence (P17787 26-502 S133T/V136L/W145Y) above, with K79T, T108S, L111V, F119Q, Y120W counted along it
T6 sequence (Q9UGM1 26-479 limits assumed): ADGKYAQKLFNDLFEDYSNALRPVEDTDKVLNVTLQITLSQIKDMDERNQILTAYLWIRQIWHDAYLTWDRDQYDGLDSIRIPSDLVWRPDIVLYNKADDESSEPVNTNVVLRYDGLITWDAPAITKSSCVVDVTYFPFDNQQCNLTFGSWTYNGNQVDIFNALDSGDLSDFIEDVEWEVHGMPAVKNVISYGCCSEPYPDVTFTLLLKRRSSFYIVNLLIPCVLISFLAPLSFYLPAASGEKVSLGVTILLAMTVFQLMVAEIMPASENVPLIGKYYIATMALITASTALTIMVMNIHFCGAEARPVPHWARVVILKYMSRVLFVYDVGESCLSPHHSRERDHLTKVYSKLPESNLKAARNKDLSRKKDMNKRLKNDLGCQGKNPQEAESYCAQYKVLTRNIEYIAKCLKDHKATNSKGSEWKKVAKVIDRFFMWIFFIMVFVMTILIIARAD
T6 sequence (Q9GZZ6 25-450): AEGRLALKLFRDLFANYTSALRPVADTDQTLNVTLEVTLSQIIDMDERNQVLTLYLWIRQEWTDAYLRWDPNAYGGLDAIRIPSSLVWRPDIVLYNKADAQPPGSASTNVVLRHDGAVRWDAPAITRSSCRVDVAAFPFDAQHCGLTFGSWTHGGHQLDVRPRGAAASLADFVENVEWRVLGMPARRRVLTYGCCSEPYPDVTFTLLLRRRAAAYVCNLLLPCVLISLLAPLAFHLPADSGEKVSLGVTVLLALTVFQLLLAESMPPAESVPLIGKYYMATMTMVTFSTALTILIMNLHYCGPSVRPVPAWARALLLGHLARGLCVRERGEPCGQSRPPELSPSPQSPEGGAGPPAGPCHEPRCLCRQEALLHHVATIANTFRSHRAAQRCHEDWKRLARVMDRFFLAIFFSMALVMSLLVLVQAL
T5 sequence (P30926 22-498): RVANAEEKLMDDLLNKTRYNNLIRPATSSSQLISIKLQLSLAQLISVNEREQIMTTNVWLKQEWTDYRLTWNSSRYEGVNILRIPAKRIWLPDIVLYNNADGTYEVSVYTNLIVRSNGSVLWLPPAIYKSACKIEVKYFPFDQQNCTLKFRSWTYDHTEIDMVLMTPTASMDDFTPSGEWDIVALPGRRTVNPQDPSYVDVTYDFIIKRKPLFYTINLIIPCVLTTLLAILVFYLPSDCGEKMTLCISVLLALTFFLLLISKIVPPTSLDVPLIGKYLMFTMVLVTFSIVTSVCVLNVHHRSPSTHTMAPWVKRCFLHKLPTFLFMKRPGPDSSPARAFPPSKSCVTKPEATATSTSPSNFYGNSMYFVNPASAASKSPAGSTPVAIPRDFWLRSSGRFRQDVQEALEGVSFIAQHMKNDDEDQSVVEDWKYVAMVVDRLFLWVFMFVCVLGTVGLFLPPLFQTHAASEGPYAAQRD
T5 sequence (P32297 32-505): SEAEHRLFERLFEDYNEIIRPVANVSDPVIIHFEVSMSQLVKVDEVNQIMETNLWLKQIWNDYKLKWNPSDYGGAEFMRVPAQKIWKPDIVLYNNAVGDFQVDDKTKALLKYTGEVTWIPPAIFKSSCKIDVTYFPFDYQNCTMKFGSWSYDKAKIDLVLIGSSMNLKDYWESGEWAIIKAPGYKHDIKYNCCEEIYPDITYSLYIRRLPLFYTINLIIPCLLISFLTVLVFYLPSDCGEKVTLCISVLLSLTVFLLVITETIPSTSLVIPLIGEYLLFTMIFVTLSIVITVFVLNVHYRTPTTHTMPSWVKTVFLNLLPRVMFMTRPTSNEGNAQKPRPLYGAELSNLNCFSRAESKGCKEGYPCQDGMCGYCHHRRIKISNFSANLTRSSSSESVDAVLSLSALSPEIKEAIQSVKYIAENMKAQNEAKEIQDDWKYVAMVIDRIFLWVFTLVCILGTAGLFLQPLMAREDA
T9 sequence (P17787 26-502): as the sequence (P17787 26-502 S133T/V136L/W145Y) above, with T108S, L111V, Y120W counted along it
T9 sequence (Q15825+P32297 fused with the stated changes): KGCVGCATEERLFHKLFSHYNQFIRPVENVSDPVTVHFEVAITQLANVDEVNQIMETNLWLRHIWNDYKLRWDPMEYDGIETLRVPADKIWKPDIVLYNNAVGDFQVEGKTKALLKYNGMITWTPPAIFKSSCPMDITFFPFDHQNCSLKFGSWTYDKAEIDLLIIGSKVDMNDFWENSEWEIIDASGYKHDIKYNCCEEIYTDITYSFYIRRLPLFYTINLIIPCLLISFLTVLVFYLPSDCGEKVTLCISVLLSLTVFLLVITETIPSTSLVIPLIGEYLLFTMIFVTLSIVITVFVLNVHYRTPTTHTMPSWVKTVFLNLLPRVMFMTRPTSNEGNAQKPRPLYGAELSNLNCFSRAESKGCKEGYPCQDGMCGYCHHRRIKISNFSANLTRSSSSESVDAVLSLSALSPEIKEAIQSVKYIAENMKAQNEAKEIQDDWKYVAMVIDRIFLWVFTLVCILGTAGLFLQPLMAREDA
T9 sequence (Q05901 25-458): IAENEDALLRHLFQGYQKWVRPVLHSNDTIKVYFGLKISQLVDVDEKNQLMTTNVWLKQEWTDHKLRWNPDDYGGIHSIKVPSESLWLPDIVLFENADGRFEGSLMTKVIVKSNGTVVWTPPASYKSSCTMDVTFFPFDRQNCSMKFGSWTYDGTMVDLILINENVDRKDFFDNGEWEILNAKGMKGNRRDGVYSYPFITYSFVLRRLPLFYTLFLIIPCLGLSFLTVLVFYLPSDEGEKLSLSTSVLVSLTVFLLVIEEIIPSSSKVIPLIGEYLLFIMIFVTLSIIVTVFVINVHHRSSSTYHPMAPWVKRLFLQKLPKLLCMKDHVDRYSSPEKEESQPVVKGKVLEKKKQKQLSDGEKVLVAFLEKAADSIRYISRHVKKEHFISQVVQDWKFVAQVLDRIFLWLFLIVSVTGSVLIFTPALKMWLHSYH
T10 sequence (P17787 26-502): as the sequence (P17787 26-502 S133T/V136L/W145Y) above, with T108S, L111V, Y120W counted along it
T10 sequence (P32297 32-505): as the sequence (P32297 32-505) above

SMILES	Kd (human α7β2‐nAChR; K d α7β2, SEM) [µM]	koff (human α7β2‐nAChR; read-out: k off α7β2, SEM) [s⁻¹]	kon (human α7β2‐nAChR; read-out: k on α7β2, SEM) [M⁻¹ s⁻¹]	Kd (human α7‐only‐nAChR) [µM]	koff (human α7‐only‐nAChR) [s⁻¹]	kon (human α7‐only‐nAChR) [M⁻¹ s⁻¹]	also measured
CC(=O)OCC[N+](C)(C)C [ACh, acetylcholine]	–	–	–	–	–	–	Imax, maximum function induced by ACh, outer pocket α7β2‐nAChR [1, 5]: 1401 ± 137 nA; hillslope (nH), outer pocket α7β2‐nAChR ([1]; logistic fit per oocyte): 1.17 ± 0.12; Imax, maximum function induced by ACh, inner pocket α7β2‐nAChR [2, 5]: 1539 ± 193 nA; hillslope (nH), inner pocket α7β2‐nAChR ([2]; logistic fit per oocyte): 0.93 ± 0.06
CC(C)C[C@@H]1NC(=O)[C@H](Cc2ccccc2)NC(=O)[C@@H]2CSSC[C@H](NC(=O)CN)C(=O)N[C@@H](CSSC[C@@H](C(N)=O)NC(=O)[C@H](Cc3ccc(O)cc3)NC(=O)[C@H](CCC(=O)O)NC(=O)[C@@H]3CCCN3C(=O)[C@H](CC(N)=O)NC(=O)[C@H](CC(N)=O)NC1=O)C(=O)N[C@@H](CO)C(=O)N[C@@H](Cc1c[nH]cn1)C(=O)N1CCC[C@H]1C(=O)N1CCC[C@H]1C(=O)N2 [[D14E]]	0.0014 ± 0.0003	6e-05	49500	0.002 ± 0.0006	0.000111	57500	–
CC(C)C[C@@H]1NC(=O)[C@H](CC(C)C)NC(=O)[C@@H]2CSSC[C@H](NC(=O)CN)C(=O)N[C@@H](CSSC[C@@H](C(N)=O)NC(=O)[C@H](Cc3ccc(O)cc3)NC(=O)[C@H](CC(=O)O)NC(=O)[C@@H]3CCCN3C(=O)[C@H](CC(N)=O)NC(=O)[C@H](CC(N)=O)NC1=O)C(=O)N[C@@H](CO)C(=O)N[C@@H](Cc1c[nH]cn1)C(=O)N1CCC[C@H]1C(=O)N1CCC[C@H]1C(=O)N2 [[F9L]]	0.015 ± 0.002	0.000292	20500	0.02 ± 0.003	0.000637	32800	block of ACh‐induced function, α3β4‐nAChR (α3β4‐nAChR): > 90%
NCC(=O)N[C@H]1CSSC[C@@H]2NC(=O)[C@@H]3CCCN3C(=O)[C@@H]3CCCN3C(=O)[C@H](Cc3c[nH]cn3)NC(=O)[C@H](CO)NC(=O)[C@H](CSSC[C@@H](C(N)=O)NC(=O)[C@H](Cc3ccc(O)cc3)NC(=O)[C@H](CC(=O)O)NC(=O)[C@@H]3CCCN3C(=O)[C@H](CC(N)=O)NC(=O)[C@H](CC(N)=O)NC(=O)[C@H](Cc3ccc(O)cc3)NC(=O)[C@H](Cc3ccccc3)NC2=O)NC1=O [[L10Y]]	0.012 ± 0.003	0.000462	50200	0.671 ± 0.136	0.0044	6670	IC50 (α9α10‐nAChR): > 0.3 µM; Kd [3]: 0.024 ± 0.003 µM; koff [3]: 0.000537 s⁻¹; kon [3]: 21700 M⁻¹ s⁻¹; Kd (human α7β2‐nAChR; K d α7β2): 0.001 to 0.002 µM; Kd (human α7β2‐nAChR; K d, Unaltered α7β2‐nAChR, SEM): 0.02 ± 0.004 µM; koff (human α7β2‐nAChR; [6]): 0.000508 s⁻¹; kon (human α7β2‐nAChR; [7]): 30700 M⁻¹ s⁻¹; Kd [4]: 0.028 ± 0.004 µM; koff [4]: 0.00064 s⁻¹; kon [4]: 24000 M⁻¹ s⁻¹
CC(C)C[C@@H]1NC(=O)[C@H](Cc2ccccc2)NC(=O)[C@@H]2CSSC[C@H](NC(=O)CN)C(=O)N[C@@H](CSSC[C@@H](C(N)=O)NC(=O)[C@H](Cc3ccc(O)cc3)NC(=O)[C@H](CC(=O)O)NC(=O)[C@@H]3CCCN3C(=O)[C@H](Cc3c[nH]cn3)NC(=O)[C@H](CC(N)=O)NC1=O)C(=O)N[C@@H](CO)C(=O)N[C@@H](Cc1c[nH]cn1)C(=O)N1CCC[C@H]1C(=O)N1CCC[C@H]1C(=O)N2 [[N12H]]	0.013 ± 0.002	0.000308	24500	0.081 ± 0.019	0.0011	18300	–
CC(C)C[C@@H]1NC(=O)[C@H](Cc2ccccc2)NC(=O)[C@@H]2CSSC[C@H](NC(=O)CN)C(=O)N[C@@H](CSSC[C@@H](C(N)=O)NC(=O)[C@H](Cc3ccc(O)cc3)NC(=O)[C@H](CC(=O)O)NC(=O)[C@@H]3CCCN3C(=O)[C@H](CC(N)=O)NC(=O)[C@H](CC(N)=O)NC1=O)C(=O)N[C@@H](CCCNC(=N)N)C(=O)N[C@@H](Cc1c[nH]cn1)C(=O)N1CCC[C@H]1C(=O)N1CCC[C@H]1C(=O)N2 [[S4R]]	0.00083 ± 5e-05	9.33e-05	112000	0.015 ± 0.006	0.000597	56700	Kd [3]: 0.00531 ± 0.00104 µM; koff [3]: 0.000232 s⁻¹; kon [3]: 45500 M⁻¹ s⁻¹; Kd (human α7β2‐nAChR; K d, Unaltered α7β2‐nAChR, SEM): 0.0019 ± 0.00021 µM; koff (human α7β2‐nAChR; [6]): 0.000124 s⁻¹; kon (human α7β2‐nAChR; [7]): 67500 M⁻¹ s⁻¹; Kd [4]: 0.00674 ± 0.00267 µM; koff [4]: 0.000255 s⁻¹; kon [4]: 64300 M⁻¹ s⁻¹
CC(C)C[C@@H]1NC(=O)[C@H](Cc2ccccc2)NC(=O)[C@@H]2CSSC[C@H](NC(=O)CN)C(=O)N[C@@H](CSSC[C@@H](C(N)=O)NC(=O)[C@H](CC(=O)O)NC(=O)[C@H](CC(=O)O)NC(=O)[C@@H]3CCCN3C(=O)[C@H](CC(N)=O)NC(=O)[C@H](CC(N)=O)NC1=O)C(=O)N[C@@H](CO)C(=O)N[C@@H](Cc1c[nH]cn1)C(=O)N1CCC[C@H]1C(=O)N1CCC[C@H]1C(=O)N2 [[Y15D]]	0.0099 ± 0.0021	0.000298	43300	0.027 ± 0.003	0.00112	54800	block of ACh‐induced function, α6/3β2β3‐nAChR (α6/3β2β3‐nAChR): ≈ 35%; block of ACh‐induced function, α3β2‐nAChR (α3β2‐nAChR): ≈ 50%
